In patent US8735584B2 (Merck Patent GmbH, priority 2008, dated 2014):

Molecular target: T1, GST-Aurora A (Homo sapiens, UniProt O14965)
T1 construct: N-terminal GST fusion with full length Aurora A (1-403 amino acids); purchased Carna Biosciences 05-101
T1 sequence (O14965 1-403): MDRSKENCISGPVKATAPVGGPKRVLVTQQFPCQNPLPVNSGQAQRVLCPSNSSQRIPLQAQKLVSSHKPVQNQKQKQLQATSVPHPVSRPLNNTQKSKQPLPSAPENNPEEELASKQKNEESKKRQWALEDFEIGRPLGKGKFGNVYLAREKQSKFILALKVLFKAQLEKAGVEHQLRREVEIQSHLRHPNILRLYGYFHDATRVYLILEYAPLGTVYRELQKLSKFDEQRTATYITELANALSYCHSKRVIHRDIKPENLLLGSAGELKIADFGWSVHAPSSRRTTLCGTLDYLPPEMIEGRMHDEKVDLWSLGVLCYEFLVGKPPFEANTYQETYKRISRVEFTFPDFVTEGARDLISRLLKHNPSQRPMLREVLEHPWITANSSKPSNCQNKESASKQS
Test: Aurora A IC50, Caliper LC3000 mobility shift assay
Format: biochemical
Conditions: LC3000 method; 15 uM ATP (the KM value); read-out: Aurora Kinase A Activity (IC50)
Procedure, shortened: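 Readout: percent conversion of FITC-LRRASLG (1 uM) to phosphopeptide, resolved electrophoretically on a Caliper LC3000, fitted against inhibitor concentration for IC50. Reaction: N-terminal GST full-length Aurora A, ATP at its KM (15 uM), pH 7.5 HEPES with MgCl2/DTT, 25 C for 90 min.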

IC50 | SMILES
> 100 nM | O=C(CN1CCC(Nc2ccnc3[nH]c(=O)c4ccccc4c23)CC1)Nc1ccccn1 [Compound 483, 2-(4-(6-Oxo-5,6-dihydrobenzo[c][1,8]naphthyridin-1-ylamino)piperidin-1-yl)-N-(pyridin-2-yl)acetamide]
> 100 nM | O=C(CN1CCC(Nc2ccnc3[nH]c(=O)c4ccccc4c23)CC1)NC1CCCCC1 [Compound 485, N-Cyclohexyl-2-(4-(6-oxo-5,6-dihydrobenzo[c][1,8]naphthyridin-1-ylamino)piperidin-1-yl)acetamide]
> 100 nM | O=C(CN1CCC(Nc2ccnc3[nH]c(=O)c4ccccc4c23)CC1)NC1CC1 [Compound 488, N-Cyclopropyl-2-(4-(6-oxo-5,6-dihydrobenzo[c][1,8]naphthyridin-1-ylamino)piperidin-1-yl)acetamide]
11 to 100 nM | O=C(Nc1ccc(Nc2ccnc3[nH]c(=O)c4ccccc4c23)cc1)C1(c2ccccc2)CCCC1 [Compound 494, N-(4-(6-Oxo-5,6-dihydrobenzo[c][1,8]naphthyridin-1-ylamino)phenyl)-1-phenylcyclopentanecarboxamide]
11 to 100 nM | O=C(Nc1ccc(Nc2ccnc3[nH]c(=O)c4ccccc4c23)cc1)C(CC1CCCO1)C(F)(F)F (stereo not shown) [Compound 495, 3,3,3-Trifluoro-N-(4-(6-oxo-5,6-dihydrobenzo[c][1,8]naphthyridin-1-ylamino)phenyl)-2-((tetrahydrofuran-2-yl)methyl)propanamide]

The remaining lines, values behind:

SMILES | IC50
O=c1[nH]c2ncccc2c2cc(NCc3ccccc3[N+](=O)[O-])ccc12 [Compound 466, 9-(2-Nitrobenzylamino)benzo[c][1,8]naphthyridin-6(5H)-one] | > 100 nM
O=c1[nH]c2ncccc2c2cc(NCc3cc(C(F)(F)F)ccc3C(F)(F)F)ccc12 [Compound 468, 9-(2,5-Bis(trifluoromethyl)benzylamino)benzo[c][1,8]naphthyridin-6(5H)-one] | > 100 nM
O=c1[nH]c2ncccc2c2cc(NCc3ccccc3Br)ccc12 [Compound 469, 9-(2-Bromobenzylamino)benzo[c][1,8]naphthyridin-6(5H)-one] | 11 to 100 nM
O=c1[nH]c2ncccc2c2cc(NCc3ccccc3Cl)ccc12 [Compound 470, 9-(2-Chlorobenzylamino)benzo[c][1,8]naphthyridin-6(5H)-one] | 11 to 100 nM
O=c1[nH]c2ncccc2c2cc(NCc3c(F)cccc3Cl)ccc12 [Compound 471, 9-(2-Chloro-6-fluorobenzylamino)benzo[c][1,8]naphthyridin-6(5H)-one] | > 100 nM
CN1CCCC1CCNc1ccc2c(=O)[nH]c3ncccc3c2c1 (stereo not shown) [Compound 475, 9-(2-(1-Methylpyrrolidin-2-yl)ethylamino)benzo[c][1,8]naphthyridin-6(5H)-one] | > 100 nM
O=c1[nH]c2ncccc2c2cc(NCc3ccc4c(c3)OCO4)ccc12 [Compound 476, 9-(Benzo[d][1,3]dioxol-5-ylmethylamino)benzo[c][1,8]naphthyridin-6(5H)-one] | > 100 nM
O=C1CCCN1CCCNc1ccc2c(=O)[nH]c3ncccc3c2c1 [Compound 479, 9-(3-(2-Oxopyrrolidin-1-yl)propylamino)benzo[c][1,8]naphthyridin-6(5H)-one] | > 100 nM
O=C(Nc1ccc(Nc2ccnc3[nH]c(=O)c4ccccc4c23)cc1)c1cccnc1C(F)(F)F [Compound 498, N-(4-(6-Oxo-5,6-dihydrobenzo[c][1,8]naphthyridin-1-ylamino)phenyl)-2-(trifluoromethyl)nicotinamide] | < 11 nM
O=C(Nc1ccc(Nc2ccnc3[nH]c(=O)c4ccccc4c23)cc1)C1(C(F)(F)F)CCCCC1 [Compound 499, N-(4-(6-Oxo-5,6-dihydrobenzo[c][1,8]naphthyridin-1-ylamino)phenyl)-1-(trifluoromethyl)cyclohexanecarboxamide] | 11 to 100 nM
O=C(Nc1ccc(Nc2ccnc3[nH]c(=O)c4ccccc4c23)cc1)C1(C(F)(F)F)CCCC1 [Compound 500, N-(4-(6-Oxo-5,6-dihydrobenzo[c][1,8]naphthyridin-1-ylamino)phenyl)-1-(trifluoromethyl)cyclopentanecarboxamide] | 11 to 100 nM
